In test [1] the target is T1, mouse complex I (Mus musculus, UniProt P03888+Q91WD5+Q9DC70).
T1 construct: hearts were obtained from C57BL/6 mice; from tissue; host or cells: heart mitochondria of C57BL/6 mice
Put plainly: NADH:DQ assay of purified compound 1-copurified mouse complex I, initial rates against control sample. The class given is biochemical. Conditions: first 25 s, 5 μM DQ, 0.5 μg ml−1 AOX, 200 μM NADH; after copurification with 200 μM compound 1 and size-exclusion chromatography; SD, n = 3 technical repeats; read-out: inhibition of initial rates (proportion of complex I molecules containing the inhibitor). The procedure:
To better understand the mode of acetogenin binding to complex I, the inhibitor-bound enzyme was prepared for cryo-EM analysis. The acetogenin ortholog inhibitor selected for study here is compound 1; it contains a γ-lactone group, a 12-carbon aliphatic chain (linker) that connects the γ-lactone to a central hydroxylated bis-tetrahydrofuran (THF) group, and a final 10-carbon aliphatic extension (tail) (Figs. 1 and 2). […] Furthermore, substrates (NADH and decylubiquinone, DQ) were added alongside to stimulate complex I turnover, along with an alcohol dehydrogenase and an alternative oxidase for substrate regeneration, to ensure exposure of the high-affinity binding site that may only be present in specific intermediates. Excess compound 1, substrates, and regenerating enzymes were then removed by size-exclusion chromatography to eliminate nonspecifically bound inhibitor molecules. […]
After ∼5 min at 4 °C incubation, 20 μl of the mixture was removed as a control, and the remaining sample was added to glass vials containing enough dried compound 1, from an ethanol stock, to give a final 200 μM of compound 1, resuspended with gentle pipetting. […] The specific activity of the control [measured in 0.15% asolectin (20 % soy PC), 0.15% CHAPS, and 200 μM DQ] was 9.6 ± 0.4 μmol min^−1 mg^−1.

Test [2] has as its target complex I (NADH:ubiquinone oxidoreductase) in bovine submitochondrial particles. The settings on record: internal bullatacin control, cited from earlier work.
Where [3] appears, read: ref 33, read-out: IC50* (complex I inhibition).
[4] abbreviates: ref 34, read-out: IC50† (complex I inhibition).

The text below walks through data of article PMC8861642, “Cryo-electron microscopy reveals how acetogenins inhibit mitochondrial respiratory complex I” (The Journal of Biological Chemistry, 2022).

Read-outs that look alike come from different tables or passages of the source.

`CCCCCCCCCCC(O)C1CCC(C2CCC(C(O)CCCCCCCCCCCCC3=CC(C)OC3=O)O2)O1` (centres unmarked) [Compound 1]: the inhibition at 200 µM in test [1] amounted to 77 ± 5%. Further, the IC50 in test [2] (setting [3]) was 1.3 nM; in test [2] (setting [4]), 1.3 ± 0.1 nM. On to `CCCCCCCCCCC(O)C1CCC(C2CCC(C(O)CCCCCCCCCCCCC3=CCOC3=O)O2)O1` (centres unmarked) [Compound 2], for which the IC50 in test [2] (setting [3]) is 1.2 ± 0.1 nM. As for `CCCCCCCCCCC(O)C1CCC(C2CCC(C(O)CCCCCCCCCCCCC3=CCC(C)OC3=O)O2)O1` (centres unmarked) [Compound 3], the IC50 in test [2] (setting [3]) was 1.3 ± 0.1 nM. With `CCCCCCCCCCC(O)C1CCC(C2CCC(C(CCCCCCCCCCCCC3=CC(C)OC3=O)OC(C)=O)O2)O1` (centres unmarked) [Compound 7], the IC50 in test [2] (setting [3]) is 2.1 nM. Consider `CCCCCCCCCCC(OC(C)=O)C1CCC(C2CCC(C(CCCCCCCCCCCCC3=CC(C)OC3=O)OC(C)=O)O2)O1` (centres unmarked) [Compound 8], for which the IC50 in test [2] (setting [3]) is 7.2 nM. With `CC1C=C(CCCCCCCCCCCCC(O)C2CCC(C3CCC(C(O)CCCCCCCCCCCCC4=CC(C)OC4=O)O3)O2)C(=O)O1` (centres unmarked) [Compound 9], in test [2] (setting [4]), the IC50 was 1.2 nM. On to `CC1C=C(CCCCCCCCCCCCC(O)C2CCC(C3CCC(C(O)CCCCCCCCCCCCC4=CC(C)OC4=O)O3)O2)C(=O)O1` (centres unmarked) [Compound 11], for which the IC50 in test [2] (setting [4]) was 1.2 ± 0.2 nM. Turning to `CC(=O)OC(CCCCCCCCCCCCC1=CC(C)OC1=O)C1CCC(C2CCC(C(O)CCCCCCCCCCCCC3=CC(C)OC3=O)O2)O1` (centres unmarked) [Compound 12], the IC50 in test [2] (setting [4]) was 2 ± 0.2 nM. `CC(=O)OC(CCCCCCCCCCCCC1=CC(C)OC1=O)C1CCC(C2CCC(C(CCCCCCCCCCCCC3=CC(C)OC3=O)OC(C)=O)O2)O1` (centres unmarked) [Compound 13]: in test [2] (setting [4]), the IC50 was 18 ± 2 nM. Besides, the “IC50† (complex I inhibition)” value in test [2] (ref 34) is reported as “maintains its high affinity”. As to bullatacin [reference compound], the IC50 is 0.9 ± 0.2 nM in test [2] (setting [3]) and 1.2 ± 0.2 nM in test [2] (setting [4]).
